According to patent publication US8227501B2, “1,6-dihydro-2H-3-oxa-6-aza-as-indacene compounds” (Ferrer Internacional, S.A., priority 2008, dated 2012):

Target: T1, recombinant human-MT1 receptor (Homo sapiens, UniProt P48039)
T1 construct: expressed in transfected cells; host or cells: unnamed cell line stably overexpressing human MT1, co-expressing mitochondrial apoaequorin and Gα16
Assay: In vitro MT1 screening, agonist activity (AequoScreen aequorin luminescence)
Type: cell-based
Conditions: percentage of activity relative to the reference agonist at the EC100 concentration; for activation at 0.001 µM: read-out: Agonism percentages of MT1, 1 nM; for activation at 0.1 µM: read-out: Agonism percentages of MT1, 100 nM
From the text: To proceed with compound screening over MT1 receptor, a cell line characterised by a stable overexpression of recombinant human-MT1 receptor was used. This line co-expresses mitochondrial apoaequorin and subunit Gα16.
Subunit Gα16 belongs to […], in which intracelular signal transduction is produced via phospholipase (PLC). Activation of PLC produces an increment of inositol-triphosphate levels and intracellular calcium levels. This increment in calcium levels is, therefore, independent and full compatible with the signal transduction of MT1 receptor.
After binding to calcium, aequorin carries out the oxidation of colenterazine to colenteramide, a luminescent reaction.
Assay protocol for agonist screening consists in an overnight incubation of cells and colenterazine, being performed by an AequoScreen™ system instrument, PerkinElmer, USA. After that this mixture was injected over a plate that contains the solution of the compounds to screen and luminescence was immediately read. Only in case of antagonism screening, after 15-30 min of the first injection the reference agonist was added in the same well, and then luminescence was measured.
Agonist activity was calculated as percentage of activity relative to the reference agonist at the EC100 concentration. Activity of antagonists was expressed as the inhibition percentage over the activity of reference agonist at its EC80, concentration.

T1 sequence (P48039 whole entry): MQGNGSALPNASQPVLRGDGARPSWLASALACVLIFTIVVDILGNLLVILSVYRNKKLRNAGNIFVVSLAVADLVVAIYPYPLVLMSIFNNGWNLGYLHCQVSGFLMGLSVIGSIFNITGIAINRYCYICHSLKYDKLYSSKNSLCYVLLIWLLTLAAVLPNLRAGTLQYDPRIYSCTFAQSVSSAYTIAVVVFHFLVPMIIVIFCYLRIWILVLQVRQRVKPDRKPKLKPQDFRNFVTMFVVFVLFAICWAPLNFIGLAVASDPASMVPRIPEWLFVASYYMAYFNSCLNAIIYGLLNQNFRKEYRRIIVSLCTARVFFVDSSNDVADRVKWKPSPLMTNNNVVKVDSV

Row | Compound | activation at 0.001 µM (1 nM compound) | activation at 0.1 µM (100 nM compound) | Agonism percentages of MT1, 1 nM (1 nM compound) | Agonism percentages of MT1, 100 nM (100 nM compound)
1 | CCCC(=O)NCCc1c[nH]c2cc(F)c3c(c12)CCO3 [Compound 15, N-[2-(4-Fluoro-1,6-dihydro-2H-3-oxa-6-aza-as-indacen-8-yl)-ethyl]-butiramide] |  |  | 43.0% | 108.2%
2 | O=C(NCCc1c[nH]c2cc(F)c3c(c12)CCO3)C(F)(F)F [Compound 18, 2,2,2-Trifluoro-N-[2-(4-fluoro-1,6-dihydro-2H-3-oxa-6-aza-as-indacen-8-yl)-ethyl]-acetamide] | 59.8% | 105% |  | 
3 | CC(=O)NCCc1c[nH]c2cc(F)c3c(c12)CC(C)O3 (centres unmarked) [Compound 22, N-[2-(4-Fluoro-2-methyl-1,6-dihydro-2H-3-oxa-6-aza-as-indacen-8-yl)-ethyl]-acetamide] | 50.5% | 96.8% |  | 
4 | CCCCC(=O)NCCc1c[nH]c2cc(F)c3c(c12)CC(C)O3 (centres unmarked) [Compound 25, Pentanoic acid [2-(4-fluoro-2-methyl-1,6-dihydro-2H-3-oxa-6-aza-as-indacen-8-yl)-ethyl]-amide] | 31.9% | 98% |  | 
5 | CC1Cc2c(c(F)cc3[nH]cc(CCNC(=O)C(C)C)c23)O1 (centres unmarked) [Compound 26, N-[2-(4-Fluoro-2-methyl-1,6-dihydro-2H-3-oxa-6-aza-as-indacen-8-yl)-ethyl]-isobutyramide] | 25.7% | 84.8% |  | 
6 | CC1Cc2c(c(F)cc3[nH]cc(CCNC(=O)C(F)(F)F)c23)O1 (centres unmarked) [Compound 28, 2,2,2-Trifluoro-N-[2-(4-fluoro-2-methyl-1,6-dihydro-2H-3-oxa-6-aza-as-indacen-8-yl)-ethyl]-acetamide] | 36.1% | 97.2% |  | 
7 | CCOC(=O)NCCc1c[nH]c2cc(F)c3c(c12)CC(C)O3 (centres unmarked) [Compound 30, [2-(4-Fluoro-2-methyl-1,6-dihydro-2H-3-oxa-6-aza-as-indacen-8-yl)-ethyl]-carbamic acid ethyl ester] | 7.1% | 68.1% |  | 
8 | CC1Cc2c(c(F)cc3[nH]cc(C(C)CNC(=O)C(C)C)c23)O1 (centres unmarked) [Compound 34, N-[2-(4-Fluoro-2-methyl-1,6-dihydro-2H-3-oxa-6-aza-as-indacen-8-yl)-propyl]-isobutyramide] | 18.4% | 95.8% |  | 
9 | CC1Cc2c(c(F)cc3[nH]cc(C(C)CNC(=O)C4CC4)c23)O1 (centres unmarked) [Compound 35, Cyclopropanecarboxylic acid [2-(4-fluoro-2-methyl-1,6-dihydro-2H-3-oxa-6-aza-as-indacen-8-yl)-propyl]-amide] | 30.5% | 94% |  | 
10 | CC1Cc2c(c(F)cc3[nH]cc(C(C)CNC(=O)C(C)(C)C)c23)O1 (centres unmarked) [Compound 37, N-[2-(4-Fluoro-2-methyl-1,6-dihydro-2H-3-oxa-6-aza-as-indacen-8-yl)-propyl]-2,2-dimethyl-propionamide] | 6.6% | 52.8% |  | 
11 | CCCCC(=O)NCC(C)c1c[nH]c2cc(F)c3c(c12)CC(C)O3 (centres unmarked) [Compound 39, Pentanoic acid [2-(4-fluoro-2-methyl-1,6-dihydro-2H-3-oxa-6-aza-as-indacen-8-yl)-propyl]-amide] | 24.6% | 91.4% |  | 
12 | COC(=O)NCC(C)c1c[nH]c2cc(F)c3c(c12)CC(C)O3 (centres unmarked) [Compound 40, [2-(4-Fluoro-2-methyl-1,6-dihydro-2H-3-oxa-6-aza-as-indacen-8-yl)-propyl]-carbamic acid methyl ester] | 24% | 95.2% |  | 
13 | CCOC(=O)NCC(C)c1c[nH]c2cc(F)c3c(c12)CC(C)O3 (centres unmarked) [Compound 41, [2-(4-Fluoro-2-methyl-1,6-dihydro-2H-3-oxa-6-aza-as-indacen-8-yl)-propyl]-carbamic acid ethyl ester] | 13.1% | 78.9% |  | 

Second part, the compound after the results:

Row | activation at 0.001 µM (1 nM compound) | activation at 0.1 µM (100 nM compound) | Agonism percentages of MT1, 1 nM (1 nM compound) | Agonism percentages of MT1, 100 nM (100 nM compound) | Compound
14 | 37.7% | 92.9% |  |  | CC(=O)NCCc1c[nH]c2cc(F)c3c(c12)CCO3 [Compound 13, N-[2-(4-Fluoro-1,6-dihydro-2H-3-oxa-6-aza-as-indacen-8-yl)-ethyl]-acetamide]
15 | 55.1% | 102% |  |  | CCC(=O)NCCc1c[nH]c2cc(F)c3c(c12)CCO3 [Compound 14, N-[2-(4-Fluoro-1,6-dihydro-2H-3-oxa-6-aza-as-indacen-8-yl)-ethyl]-propionamide]
16 | 23% | 82.3% |  |  | CC(C)C(=O)NCCc1c[nH]c2cc(F)c3c(c12)CCO3 [Compound 16, N-[2-(4-Fluoro-1,6-dihydro-2H-3-oxa-6-aza-as-indacen-8-yl)-ethyl]-isobutyramide]
17 | 43.8% | 93.2% |  |  | O=C(NCCc1c[nH]c2cc(F)c3c(c12)CCO3)C1CC1 [Compound 17, Cyclopropanecarboxylic acid [2-(4-fluoro-1,6-dihydro-2H-3-oxa-6-aza-as-indacen-8-yl)-ethyl]-amide]
18 | 27.8% | 96.8% |  |  | CCCC(=O)NCC(C)c1c[nH]c2cc(F)c3c(c12)CC(C)O3 (centres unmarked) [Compound 19, N-[2-(4-Fluoro-2-methyl-1,6-dihydro-2H-3-oxa-6-aza-as-indacen-8-yl)-propyl]-butyramide]
19 | 30.2% | 94.3% |  |  | CCC(=O)NCC(C)c1c[nH]c2cc(F)c3c(c12)CC(C)O3 (centres unmarked) [Compound 20, N-[2-(4-Fluoro-2-methyl-1,6-dihydro-2H-3-oxa-6-aza-as-indacen-8-yl)-propyl]-propionamide]
20 | 43.2% | 92.6% |  |  | CC(=O)NCC(C)c1c[nH]c2cc(F)c3c(c12)CC(C)O3 (centres unmarked) [Compound 21, N-[2-(4-Fluoro-2-methyl-1,6-dihydro-2H-3-oxa-6-aza-as-indacen-8-yl)-propyl]-acetamide]
21 | 39.1% | 99.7% |  |  | CCC(=O)NCCc1c[nH]c2cc(F)c3c(c12)CC(C)O3 (centres unmarked) [Compound 23, N-[2-(4-Fluoro-2-methyl-1,6-dihydro-2H-3-oxa-6-aza-as-indacen-8-yl)-ethyl]-propionamide]
22 | 42.1% | 99.8% |  |  | CCCC(=O)NCCc1c[nH]c2cc(F)c3c(c12)CC(C)O3 (centres unmarked) [Compound 24, N-[2-(4-Fluoro-2-methyl-1,6-dihydro-2H-3-oxa-6-aza-as-indacen-8-yl)-ethyl]-butyramide]
23 | 33.8% | 91.1% |  |  | CC1Cc2c(c(F)cc3[nH]cc(CCNC(=O)C4CC4)c23)O1 (centres unmarked) [Compound 27, Cyclopropanecarboxylic acid [2-(4-fluoro-2-methyl-1,6-dihydro-2H-3-oxa-6-aza-as-indacen-8-yl)-ethyl]-amide]
24 | 17.4% | 77.3% |  |  | COC(=O)NCCc1c[nH]c2cc(F)c3c(c12)CC(C)O3 (centres unmarked) [Compound 29, [2-(4-Fluoro-2-methyl-1,6-dihydro-2H-3-oxa-6-aza-as-indacen-8-yl)-ethyl]-carbamic acid methyl ester]
25 | 22.3% | 90.4% |  |  | CC(C)CC(=O)NCCc1c[nH]c2cc(F)c3c(c12)CC(C)O3 (centres unmarked) [Compound 31, N-[2-(4-Fluoro-2-methyl-1,6-dihydro-2H-3-oxa-6-aza-as-indacen-8-yl)-ethyl]-3-methyl-butyramide]
26 | 38.6% | 93.1% |  |  | CC1Cc2c(c(F)cc3[nH]cc(CCNC(=O)C(C)F)c23)O1 (centres unmarked) [Compound 32, 2-Fluoro-N-[2-(4-fluoro-2-methyl-1,6-dihydro-2H-3-oxa-6-aza-as-indacen-8-yl)-ethyl]-propionamide]
27 | 26.6% | 87.5% |  |  | CCNC(=O)NCCc1c[nH]c2cc(F)c3c(c12)CC(C)O3 (centres unmarked) [Compound 33, 1-Ethyl-3-[2-(4-fluoro-2-methyl-1,6-dihydro-2H-3-oxa-6-aza-as-indacen-8-yl)-ethyl]-urea]
28 | 20.9% | 89.7% |  |  | CC(C)CC(=O)NCC(C)c1c[nH]c2cc(F)c3c(c12)CC(C)O3 (centres unmarked) [Compound 36, N-[2-(4-Fluoro-2-methyl-1,6-dihydro-2H-3-oxa-6-aza-as-indacen-8-yl)-propyl]-3-methyl-butyramide]
29 | 36.9% | 101% |  |  | CC1Cc2c(c(F)cc3[nH]cc(C(C)CNC(=O)C(F)(F)F)c23)O1 (centres unmarked) [Compound 38, 2,2,2-Trifluoro-N-[2-(4-fluoro-2-methyl-1,6-dihydro-2H-3-oxa-6-aza-as-indacen-8-yl)-propyl]-acetamide]
30 | 19.7% | 87.8% |  |  | CCNC(=O)NCC(C)c1c[nH]c2cc(F)c3c(c12)CC(C)O3 (centres unmarked) [Compound 42, 1-Ethyl-3-[2-(4-fluoro-2-methyl-1,6-dihydro-2H-3-oxa-6-aza-as-indacen-8-yl)-propyl]-urea]
31 | 30.6% | 92.8% |  |  | CC1Cc2c(c(F)cc3[nH]cc(C(C)CNC(=O)C(C)F)c23)O1 (centres unmarked) [Compound 43, 2-Fluoro-N-[2-(4-fluoro-2-methyl-1,6-dihydro-2H-3-oxa-6-aza-as-indacen-8-yl)-propyl]-propionamide]
